Entries after “also recorded” stand apart in the source; their conditions may differ.
Experiments:
[1] = tested on: Rat Medial Meniscal Tear Model; experiment: Dose range study of compound A in a rat medial meniscal tear model; type: in vivo, Lewis rats
Method: The vehicle was prepared separately and then added to aliquots of compound A powder, after which the mixture was vortexed and becomes a clear solution. Dosing solutions were prepared for doses ranging from 30 μM to 0.3 μM. Dosing volume was set to 30 μL/knee. Dosing solutions were prepared fresh for each dose. Dosing solutions were verified at the end of the study. The positive control compound FGF-18 stock was reconstituted in 5 mM Tris, pH 8.0 as per manufacturer's instructions. The FGF-18 stock was further diluted in saline to a final concentration of 0.167 mg/mL. Fresh dilutions were prepared twice a week at the time of injection.
Fourteen-week-old male Lewis rats (Charles River, Kingston, N.Y.) were in the weight range of 285-327 g.
Rats were sorted based on body weight into 8 study groups of 15 rats. They were surgerized and enrolled in a staggered fashion across one week (enroll 20 animals per day for 6 days). Animals were anesthetized with a ketamine/xylazine cocktail (50 mg/kg Ketaved—Henry Schein, and 5 mg/kg Xyalzine AniSed, respectively) by intraperitoneal injection, administered appropriate analgesics (Flunixin, 5 mg/kg subcutaneous injection), and the surgical site shaved and disinfected. A small incision was made on the medial right hind knee to expose the collateral ligament. The collateral ligament was transected and the joint capsule opened sufficiently to expose the medial meniscus. The meniscus was transected completely, then the skin incision was closed, and pressure applied to the wound to prevent hematoma development. Animals were allowed to recover on a heated blanket and were returned to their home cages. Sham procedures were carried out in a similar fashion except the medial meniscus was not cut. All surgical procedures were performed aseptically and all procedures were approved by the IACUC. Animals were monitored daily for the following week for postoperative care prior to dosing. Any animals with atypical healing (bruising/hematoma) were removed from the study and replaced with spare animals. Animals were enrolled into the following groups: […]

in vivo [2] = settings: male, Crl:CD(SD), rat, 2.1 ug
in vivo [3] = settings: male, beagle, dog, 70 μg/knee/week
[4] = Intra-articular acute toxicity study in the Beagle dog (toxicokinetics); settings: for Tlast / AUC(0-t) / Cmax: male dogs, plasma
[5] = dose increment of 2.9 fold (from 35 to 100 ng)
[6] = single IA 35 μg/knee, individual animals 41M, 42M
[7] = single IA 100 μg/knee, individual animals 43M, 44M
[8] = single IA 200 μg/knee, individual animals 45M, 46M

## COCCc1ccc(NC(=O)c2ccccc2NS(C)(=O)=O)cc1 [Compound A, N-(4-(2-methoxyethyl)phenyl)-2-(methylsulfonamido)benzamide]
[1]; 30 μM (0.315 μg/knee) IA once every other week, vs vehicle
  total joint scores without the femur: significantly improved; also recorded: significant improvement
[1]; 30 μM dose, FGF-18 5 μg/injection twice a week
  degree of improvement of total joint score compared with positive control: on par with FGF-18
[1]; IA once every other week, any of the doses tested (30, 10, 3, 1, 0.3 μM)
  adverse effects: no adverse effects
In vivo [2]
  Cmax: 13.8 ng/mL
In vivo [3]
  AUC(0-t): 13.8 ng·h/mL
[4]; at study termination, below the LLQ
  concentrations in synovial fluid samples: < 0.5 ng/mL
[4]; [5]
  increase in mean AUC0-t: 0.7 fold
  increase in mean Cmax: 0.7 fold
[4]; dose increment of 5.7 fold
  increase in mean AUC0-t: approximately 1.5 fold
  increase in mean Cmax: approximately 1.5 fold
[4]; single IA 35 μg/knee, Mean
  Tlast: 4.00 h
[4]; [6]
  AUC(0-t): 5.41 ng·h/mL
  Cmax: 2.21 ng/mL
  Tlast: 4.00 h
[4]; single IA 100 μg/knee, Mean
  Tlast: 4.00 h
[4]; [7]
  AUC(0-t): 11.7 ng·h/mL
  Cmax: 4.75 ng/mL
  Tlast: 4.00 h
[4]; single IA 200 μg/knee, Mean
  Tlast: 4.00 h
[4]; [8]
  AUC(0-t): 9.60 ng·h/mL
  Cmax: 3.21 ng/mL
  Tlast: 4.00 h
[4]; male, beagle, dog, 35 μg/knee, AUC0-t, single IA 35 μg/knee, Mean
  AUC(0-t): 5.31 ng·h/mL
[4]; male, beagle, dog, 35 μg/knee, AUC0-t, single IA 35 μg/knee, individual animals 41M, 42M
  AUC(0-t): 5.21 ng·h/mL
[4]; male, beagle, dog, 35 μg/knee, Cmax, single IA 35 μg/knee, Mean
  Cmax: 2.17 ng/mL
[4]; male, beagle, dog, 35 μg/knee, Cmax, single IA 35 μg/knee, individual animals 41M, 42M
  Cmax: 2.14 ng/mL
[4]; male, beagle, dog, 100 μg/knee, AUC0-t, single IA 100 μg/knee, Mean
  AUC(0-t): 12.3 ng·h/mL
[4]; male, beagle, dog, 100 μg/knee, AUC0-t, single IA 100 μg/knee, individual animals 43M, 44M
  AUC(0-t): 13 ng·h/mL
[4]; male, beagle, dog, 100 μg/knee, Cmax, single IA 100 μg/knee, Mean
  Cmax: 4.59 ng/mL
[4]; male, beagle, dog, 100 μg/knee, Cmax, single IA 100 μg/knee, individual animals 43M, 44M
  Cmax: 4.43 ng/mL
[4]; male, beagle, dog, 200 μg/knee, AUC0-t, single IA 200 μg/knee, Mean
  AUC(0-t): 8.89 ng·h/mL
[4]; male, beagle, dog, 200 μg/knee, AUC0-t, single IA 200 μg/knee, individual animals 45M, 46M
  AUC(0-t): 8.18 ng·h/mL
[4]; male, beagle, dog, 200 μg/knee, Cmax, single IA 200 μg/knee, Mean
  Cmax: 3.01 ng/mL
[4]; male, beagle, dog, 200 μg/knee, Cmax, single IA 200 μg/knee, individual animals 45M, 46M
  Cmax: 2.81 ng/mL

Reference: patent US20210361600A1, “METHODS FOR INDUCING CHONDROGENESIS” (THE SCRIPPS RESEARCH INSTITUTE, priority 2017, published 2021)
